From US10214540B2, “Compound having agonistic activity on somatostatin receptor, and use thereof for medical purposes” (ONO PHARMACEUTICAL CO., LTD., priority 2012, dated 2019)
pEC50: −log10 of the molar value.

What was measured:
[1] = system: Growth Hormone (GH) secretion; experiment: Evaluation of Growth Hormone (GH) secretory inhibitory activity using rat (GHRH-evoked); assay type: in vivo
Procedure: Evaluation of Growth Hormone (GH) secretory inhibitory activity using rat.
Test compounds dissolved in vehicle (distillated water (Otsuka jouryuusui, Otsuka Pharmaceutical Factory, Inc.) or vehicle only was administered to rat (7-week-old, male Crl: CD (SD) IGS rat (CHARLES RIVER LABORATORIES JAPAN, INC.)) orally, and 27 min. later, 50 mg/kg of sodium pentobarbital (Somunopentil® Kyoritsu Seiyaku) was administered by tail vein injection to be anesthetized. Three minutes after administration of sodium pentobarbital, 0.01 mg/kg of growth hormone-releasing hormone (GHRH, Bachem) was administered by tail vein injection to evoke GH secretion. To measure blood concentration of GH, 0.2 mL blood sample from cervical vein was collected 5 minutes after administration of GHRH. The blood samples were treated with centrifugation at 13,000 g at 4° C. for 5 min. to obtain plasma sample. Blood concentration of GH was determined by Rat/Mouse Growth Hormone ELISA (Millipore) according to the procedure manual.
Test compounds dissolved in vehicle (distillated water (Otsuka jouryuusui, Otsuka Pharmaceutical Factory, Inc.) or vehicle only was administered to rat (7-week-old, male Crl: CD (SD) IGS rat (CHARLES RIVER LABORATORIES JAPAN, INC.)) orally, and 7 hours 57 minutes later, 50 mg/kg of sodium pentobarbital (Somunopentil® Kyoritsu Seiyaku) was administered by tail vein injection to be anesthetized. Three min. after administration of sodium pentobarbital, 0.01 mg/kg of growth hormone-releasing hormone (GHRH, Bachem) was given by tail vein injection to evoke GH secretion. Procedure after that was same as [Procedure (A)]

human SSTR2 = molecular target: T1, human SSTR2 (Homo sapiens, UniProt P30874); experiment: Evaluation of SSTR2 agonist activity using human SSTR2 expressing cells (inhibition of Forskolin-stimulated cAMP production in SSTR2-CHO-K1); assay type: cell-based; conditions: read-out: EC50 of agonist activity against human SSTR2
T1 construct: Myc; expressed in transfected cells
Procedure: Evaluation of SSTR2 Agonist Activity Using Human SSTR2 Expressing Cells
CHO-K1 (−) were cultured using Ham's F-12 (including FBS (10%), penicillin (100 U/mL) and streptomycin (0.1 mg/mL)) as medium. The transduced cells were cultured using the medium above with geneticin (1 mg/ml).
The plasmid pIRESneo-Myc/hSSTR2 was transduced into CHO-K1 (−) cell using Lipofectamine 2000 (Invitrogen). After 48 hours, the medium was changed to the medium including 1 mg/mL Geneticin, overexpressing cells were selected and stably overexpressing cells (SSTR2-CHO-K1) were established.
Human SSTR2 agonist activity of test compounds was evaluated by following procedure using inhibition activity against intracellular cyclic AMP (cAMP) production stimulated by Forskolin as an indicator. The SSTR2-CHO-K1 cells suspended in Ham's F-12 medium (including fetal bovine serum (10%), penicillin (100 U/mL), streptomycin (0.1 mg/mL)) including 0.25 mg/mL Geneticin was seeded in 96 wells plate (4.0×10^4 cells/0.1 mL/1 well). After 1 day, the medium was removed and the cells were washed with 0.1 mL of wash buffer solution [0.1% bovine serum albumin (BSA), Hank's Balanced Salt Solution (HBSS) including 20 mmol/L 4-(2-hydroxyethyl)-1-piperazine ethanesulfonic acid (HEPES)] twice. To the cells added 0.06 mL/well assay buffer [500 nmol/L 3-isobutyl-1-methylxanthine (IBMX), 0.1% BSA, 20 mmol/L HBSS including HEPES], and incubated for 15 min. under 5% CO2 and 37° C. Next, to the cells added 0.06 mL/well assay buffer including test compounds of the double concentration of final concentration and 0.02 mmol/L Forskolin, and incubated for 30 min. under 5% CO2 and 37° C. After that, to the cells added 0.12 mL/well Assay/Lysis buffer included with cAMP-Screen® kit (Applied Biosystems®), and incubated for 30 min. under 5% CO2 and 37° C. The concentration of c-AMP is determined by ELISA test according to manual included with the kit.

[2] = system: cultured human hepatocyte; experiment: Evaluation of the cell toxicity using cultured human hepatocyte (ATP, Celltiter-Glo); assay type: cell-based; conditions: IC50 of Biological Example 4 / EC50 of Biological Example 1
Procedure: (§1) Evaluation of the cell toxicity using cultured human hepatocyte.
(§2) Frozen adherent human hepatocyte was thawed and suspended in hepatocyte cultured medium (HCM) purchased from Lonza, and then seeded in 96 wells plate coated by collagen. The hepatocytes were cultured overnight in the incubator (5% carbon dioxide, 95% air, 37° C.) and its medium was replaced with medium including test compounds ([…]) and cultured for 24 hours more. The cell toxicity was evaluated by measurement of ATP concentration in the cells. Specifically, using Promega Celltiter-Glo luminescent assay kit made by Promega KK, the cells were dissolved in an accompanying assay buffer and the ATP concentration released from the cells was determined by an emission of light of the luciferin-luciferase enzyme activity. The emission of light was measured by Molecular device's SpectraMax plate reader. A degree of toxicity was shown 50% inhibitory compound concentration of the emission of light (IC50).

[3] = as above; assay type: cell-based; conditions: cultured adherent human hepatocytes (thawed from frozen); cultured human hepatocytes, 24 hours, ATP concentration; read-out: IC50 (50% inhibitory compound concentration of the emission of light, cell toxicity)
Procedure: as §1, §2

gastric acid secretion = experiment: Evaluation of the gastric-acid secretion inhibitory activity using rat (gastric outlet tied off); assay type: in vivo; conditions: dose of 0.3 mg/kg, subcutaneously
Procedure: Evaluation of the gastric-acid secretion inhibitory activity using rat.
After closing the laparotomy department, vehicle only (saline (Otsuka seishokuchu, Otsuka Pharmaceutical Factory, Inc.) or test compounds which were dissolved in vehicle were administered subcutaneously immediately, and the rats were recovered from anesthesia. After 2 hours from tying gastric outlet, the rats were treated with abdominal operation under isoflurane anesthesia again, pinched cardiac end of the stomach with forceps and exsanguinated to death. After stomach contents were centrifugalized at 500 g for 15 min. and the supernatant was separated as gastric fluid, the volume of gastric fluid was determined based on weight (mL/100 g BW). Furthermore, acid concentration of gastric fluid (mmol/mL) was determined by back titration using COM-1600ST automatic titrator (Hitachi High-Technologies Corporation (Hiranuma sangyo Co., Ltd.)).

[4] = molecular target: somatostatin receptor subtype 1 (SSTR1) (Homo sapiens, UniProt P30872); conditions: reported in background art; cited from earlier work
[5] = molecular target: somatostatin receptor subtype 4 (SSTR4) (Homo sapiens, UniProt P31391); conditions: reported in background art; cited from earlier work
[6] = molecular target: somatostatin receptor subtype 2 (SSTR2) (Homo sapiens, UniProt P30874); conditions: reported in background art; cited from earlier work
[7] = molecular target: somatostatin receptor subtype 3 (SSTR3) (Homo sapiens, UniProt P32745); conditions: reported in background art; cited from earlier work
[8] = 1 mg/kg orally, Procedure (B): administered 8 hours before

T1 sequence (P30874 whole entry): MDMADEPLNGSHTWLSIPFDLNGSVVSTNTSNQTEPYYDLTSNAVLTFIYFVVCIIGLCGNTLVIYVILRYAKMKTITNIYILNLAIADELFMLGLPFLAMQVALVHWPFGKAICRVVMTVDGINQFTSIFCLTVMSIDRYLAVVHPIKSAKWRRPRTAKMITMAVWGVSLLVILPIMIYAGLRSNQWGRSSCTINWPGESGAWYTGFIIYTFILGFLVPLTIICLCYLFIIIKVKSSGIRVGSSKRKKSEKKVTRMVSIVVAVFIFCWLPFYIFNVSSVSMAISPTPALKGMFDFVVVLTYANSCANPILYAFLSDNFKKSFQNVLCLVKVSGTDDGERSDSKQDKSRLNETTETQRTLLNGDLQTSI
Chain of somatostatin receptor subtype 2 (SSTR2) (P30874 whole entry, species assumed): as the sequence (P30874 whole entry) above
Chain of somatostatin receptor subtype 4 (SSTR4) (P31391 whole entry, species assumed): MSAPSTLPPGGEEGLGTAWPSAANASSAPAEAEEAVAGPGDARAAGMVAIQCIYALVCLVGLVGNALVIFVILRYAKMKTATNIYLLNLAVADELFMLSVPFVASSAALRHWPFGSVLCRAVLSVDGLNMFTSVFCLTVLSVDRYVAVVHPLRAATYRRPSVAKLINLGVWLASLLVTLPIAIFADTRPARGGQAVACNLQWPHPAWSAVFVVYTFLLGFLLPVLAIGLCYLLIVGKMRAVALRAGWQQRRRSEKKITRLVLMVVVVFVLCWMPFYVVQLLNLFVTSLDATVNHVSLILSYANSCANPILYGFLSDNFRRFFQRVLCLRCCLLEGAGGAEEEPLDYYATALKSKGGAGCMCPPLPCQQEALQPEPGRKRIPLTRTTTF
Chain of somatostatin receptor subtype 1 (SSTR1) (P30872 whole entry, species assumed): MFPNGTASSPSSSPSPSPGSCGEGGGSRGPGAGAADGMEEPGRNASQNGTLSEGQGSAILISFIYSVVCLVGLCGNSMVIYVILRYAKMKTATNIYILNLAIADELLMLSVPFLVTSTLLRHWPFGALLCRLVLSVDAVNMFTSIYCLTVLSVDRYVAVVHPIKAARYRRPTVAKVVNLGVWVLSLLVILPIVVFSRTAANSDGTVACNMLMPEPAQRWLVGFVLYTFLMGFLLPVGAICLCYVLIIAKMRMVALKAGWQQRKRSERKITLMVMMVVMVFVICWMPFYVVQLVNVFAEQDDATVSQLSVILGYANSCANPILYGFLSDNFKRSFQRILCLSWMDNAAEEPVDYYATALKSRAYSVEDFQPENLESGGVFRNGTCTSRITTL
Chain of somatostatin receptor subtype 3 (SSTR3) (P32745 whole entry, species assumed): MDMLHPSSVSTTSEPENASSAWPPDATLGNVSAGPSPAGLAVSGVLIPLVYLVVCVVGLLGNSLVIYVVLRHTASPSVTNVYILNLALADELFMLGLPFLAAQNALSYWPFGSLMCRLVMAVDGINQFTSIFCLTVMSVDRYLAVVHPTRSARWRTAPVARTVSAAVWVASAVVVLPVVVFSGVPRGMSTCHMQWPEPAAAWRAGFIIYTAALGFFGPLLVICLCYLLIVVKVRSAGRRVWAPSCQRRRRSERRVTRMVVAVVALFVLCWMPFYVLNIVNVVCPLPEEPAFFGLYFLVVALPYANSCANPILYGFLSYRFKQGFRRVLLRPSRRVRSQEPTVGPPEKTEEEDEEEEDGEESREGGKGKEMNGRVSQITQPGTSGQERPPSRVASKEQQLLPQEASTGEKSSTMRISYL

| Compound | ratio of GH secretion inhibition [1, 8] [%] | pEC50 (human SSTR2) | ratio of IC50 (hepatocyte toxicity) divided by SSTR2 agonist activity (EC50) [2] | IC50 at 24 h [3] [µM] | further results |
| --- | --- | --- | --- | --- | --- |
| Cc1cc(F)cc(-c2cncc(/C=C/c3cncc(C#N)c3)c2N2CC[C@H]3NCCO[C@@H]3C2)c1 (racemic) [Example 36(8), 5-[(E)-2-{5-(3-fluoro-5-methylphenyl)-4-[rac-(4aR,8aR)-octahydro-6H-pyrido[3,4-b][1,4]oxazin-6-yl]-3-pyridinyl}vinyl]nicotinonitrile] | 83 | 10.47 | 2,030,000 times | 69 |  |
| Cc1cc(C)cc(NC(=O)c2cncc(-c3cc(C)cc(C)c3)c2N2CCC(CN)CC2)c1 [Example 2(20), 4-[4-(aminomethyl)-1-piperidinyl]-N,5-bis(3,5-dimethylphenyl)pyridine-3-carboxamide] |  | 11.22 | 6,670,000 times | 40 | ratio of GH secretion inhibition ([1]; 3 mg/kg orally, Procedure (A): administered 30 min before): 97%; ratio of gastric acid secretion inhibition (gastric acid secretion): 89% |
| Cc1cc(C)cc(-c2cncc(-c3ccc(C(F)(F)F)cc3)c2N2CCC(N)CC2)c1 [Example 26(15), 1-{3-(3,5-dimethylphenyl)-5-[4-(trifluoromethyl)phenyl]-4-pyridinyl}-4-piperidinamine] |  |  |  |  | ratio of GH secretion inhibition ([1]; 3 mg/kg orally, Procedure (B): administered 8 hours before): 92% |
| Cc1cc(F)cc(-c2cncc(-c3ccc(C(F)(F)F)cc3)c2N2CCC(N)CC2)c1 [Example 26(24), 1-{3-(3-fluoro-5-methylphenyl)-5-[4-(trifluoromethyl)phenyl]-4-pyridinyl}-4-piperidinamine] | 91 | 10.31 | 710,000 times | 35 |  |
| Cc1cc(F)cc(-c2cncc(/C=C/c3cccc(C#N)c3)c2N2CCC(N)CC2)c1 [Example 36(5), 3-{(E)-2-[4-(4-amino-1-piperidinyl)-5-(3-fluoro-5-methylphenyl)-3-pyridinyl]vinyl}benzonitrile] | 92 | 10.80 | 1,190,000 times | 19 |  |
| CC(C)[C@@H]1NC(=O)[C@H](CCCCN)NC(=O)[C@@H](Cc2c[nH]c3ccccc23)NC(=O)[C@H](Cc2ccc(O)cc2)NC(=O)[C@@H](NC(=O)[C@H](N)Cc2ccc3ccccc3c2)CSSC[C@@H](C(=O)N[C@H](C(N)=O)[C@@H](C)O)NC1=O [Lanreotide acetate] |  |  |  |  | binding to SSTR1 (in words) [4]: not to bind; binding to SSTR4 (in words) [5]: not to bind; binding affinity to SSTR2 (in words) [6]: high affinity; binding affinity to SSTR3 (in words) [7]: moderate affinity |
| Cc1cc(C)cc(-c2cnc3cc(Cl)c(-c4cnn(C)c4)cc3c2OCC[C@H]2CCCCN2)c1 [formula (M), reference compound] |  |  |  | 13 |  |
